Active and inactive are the calls of the source. Rule as the data show it, for most assays here: actives have a measured EC50 and inactives only a lower limit.
Legend:
[1] = molecular target: Luciferin 4-monooxygenase (Photinus pyralis, UniProt P08659); assay: inhibition of purified Photinus pyralis luciferase – biochemical, luminescence, dose response (AID 1891)
[2] = Luminescence Cell-Based Dose Confirmation HTS to Identify Inhibitors of Platelet Dense Granule Release. [Related pubchem assays: 1663 (Primary HTS), 1678 (Summary of Project)]; format: functional
[3] = molecular target: T1, Ubiquitin-conjugating enzyme E2 N (Homo sapiens, UniProt P61088); format: functional;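 also: Dose-response confirmation in a TR-FRET assay detecting UBC13-driven polyubiquitin chain formation, inhibition measured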
T1 sequence (P61088 whole entry): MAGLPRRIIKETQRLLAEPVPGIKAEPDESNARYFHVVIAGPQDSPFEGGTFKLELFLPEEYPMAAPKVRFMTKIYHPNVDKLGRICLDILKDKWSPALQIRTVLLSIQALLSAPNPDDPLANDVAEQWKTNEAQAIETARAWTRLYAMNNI

[4] = intracellular Trypanosoma cruzi inhibitors in host cells – cell-based, plate reader, cherry-pick samples, set 3, dose response (AID 651818); format: functional;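 also: compounds incubated with infected cells for about four days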
[5] = system: INS1; assay: INS-1E survival protection against cytokine death – cell-based, luminescence, retest, dose response (AID 449756); format: functional; conditions: Rattus norvegicus;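 also: cell death triggered by IL-1 beta plus TNF-alpha plus IFN-gamma mixture; protective hits raise ATP signal compared with cytokine alone wells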
[6] = Luminescence Cell-Based Dose Response HTS to Identify Activators of Luciferase Translation or Activity in H4 […] Cells. [Related pubchem assays: 1829 (Project Summary), 1814 (Primary HTS)]; format: functional
[7] = system: H4; assay: Luminescence Cell-Based Dose Response HTS to Identify Activators of 5'UTR Stem-Loop Driven Prion Protein mRNA Translation in H4 Neuroglioblastoma Cells. [Related pubchem assays: 1829 (Project Summary), 1814 (Primary HTS)]; format: functional; conditions: Homo sapiens
[8] = molecular target: Heat shock protein HSP 90-alpha (Homo sapiens, UniProt P07900); format: functional, organism-based
[9] = system: BJ; assay: BJ-TERT-LT-ST fibroblast viability loss – cell-based, RAS-independent, luminescence, dose response (AID 1935); format: functional; conditions: Homo sapiens;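 also: BJ fibroblasts immortalized with TERT plus LT and ST oncogenes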
[10] = system: BJ; assay: cells; format: functional, cell-based; conditions: Homo sapiens
[11] = DRD fibroblast viability loss – cell-based, non-viral oncogenic, luminescence, dose response (AID 1934); format: functional; conditions: Homo sapiens
[12] = system: BJ; assay: BJ-TERT fibroblast viability loss – cell-based, RAS-independent, luminescence, dose response (AID 1933); format: functional; conditions: Homo sapiens
[13] = molecular target: T2, Zinc finger protein mex-5 (Caenorhabditis elegans, UniProt Q9XUB2); assay: potency of MEX-5 RNA-binding blockers – biochemical, C. elegans, fluorescence polarization, dose response (AID 1960)
T2 sequence (Q9XUB2 whole entry): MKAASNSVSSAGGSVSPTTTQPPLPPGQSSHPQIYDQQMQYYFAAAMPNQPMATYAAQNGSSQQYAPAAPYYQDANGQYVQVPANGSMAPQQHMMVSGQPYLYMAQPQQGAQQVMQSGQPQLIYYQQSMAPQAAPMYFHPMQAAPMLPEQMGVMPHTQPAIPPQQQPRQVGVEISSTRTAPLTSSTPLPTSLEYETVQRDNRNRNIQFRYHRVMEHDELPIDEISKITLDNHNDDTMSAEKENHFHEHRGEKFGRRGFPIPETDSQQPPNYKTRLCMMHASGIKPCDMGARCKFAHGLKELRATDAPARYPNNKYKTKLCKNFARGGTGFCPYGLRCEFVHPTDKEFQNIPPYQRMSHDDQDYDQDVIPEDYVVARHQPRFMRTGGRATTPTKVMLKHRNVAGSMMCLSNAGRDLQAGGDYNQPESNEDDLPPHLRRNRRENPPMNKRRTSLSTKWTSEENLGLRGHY

[14] = molecular target: T3, RNA-binding protein pos-1 (Caenorhabditis elegans, UniProt G5EF15); assay: disruptors of C. elegans POS-1 RNA interaction – biochemical, fluorescence polarization, dose response (AID 1964);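 also: purified POS-1 fused to maltose binding protein made in E. coli; potency of compounds blocking POS-1 binding to fluorescent RNA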
T3 sequence (G5EF15 whole entry): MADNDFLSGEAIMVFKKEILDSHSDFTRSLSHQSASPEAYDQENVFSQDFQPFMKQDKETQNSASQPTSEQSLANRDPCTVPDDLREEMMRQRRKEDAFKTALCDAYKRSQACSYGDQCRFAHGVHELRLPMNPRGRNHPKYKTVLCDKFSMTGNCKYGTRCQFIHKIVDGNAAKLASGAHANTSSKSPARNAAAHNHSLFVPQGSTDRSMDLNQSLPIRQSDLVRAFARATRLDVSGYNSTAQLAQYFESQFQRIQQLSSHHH

[15] = molecular target: Large T antigen (Simian virus 40, UniProt P03070); format: functional, Betapolyomavirus macacae;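 also: Confirmatory-stage PubChem screen for compounds that inhibit SV40 T antigen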
Chain of Large T antigen (P03070 whole entry): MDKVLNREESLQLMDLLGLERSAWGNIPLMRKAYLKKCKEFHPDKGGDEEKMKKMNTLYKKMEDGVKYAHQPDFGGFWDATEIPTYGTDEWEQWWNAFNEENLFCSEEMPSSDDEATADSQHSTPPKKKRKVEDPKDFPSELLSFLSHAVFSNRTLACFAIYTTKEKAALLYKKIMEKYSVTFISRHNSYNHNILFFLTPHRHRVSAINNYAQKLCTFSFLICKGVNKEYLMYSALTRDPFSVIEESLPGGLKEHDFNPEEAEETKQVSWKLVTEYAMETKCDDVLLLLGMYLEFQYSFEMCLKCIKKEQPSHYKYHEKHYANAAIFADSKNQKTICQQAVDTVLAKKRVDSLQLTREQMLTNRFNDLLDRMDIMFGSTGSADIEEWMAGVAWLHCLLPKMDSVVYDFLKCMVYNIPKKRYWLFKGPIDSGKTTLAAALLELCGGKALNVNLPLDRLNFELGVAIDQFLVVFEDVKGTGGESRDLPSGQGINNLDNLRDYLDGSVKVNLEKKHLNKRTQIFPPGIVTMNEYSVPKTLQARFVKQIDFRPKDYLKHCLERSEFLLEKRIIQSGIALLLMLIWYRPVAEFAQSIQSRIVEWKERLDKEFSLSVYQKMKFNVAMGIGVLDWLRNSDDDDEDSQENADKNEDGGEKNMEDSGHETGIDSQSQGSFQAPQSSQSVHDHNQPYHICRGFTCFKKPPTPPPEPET

[16] = molecular target: T4, Heat shock factor protein 1 (Mus musculus, UniProt P38532); assay: enhancement of HSF1-driven luciferase signal – cell-based, NIH3T3, luminescence, dose retest, confirmation (AID 435004); format: functional;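 also: stress induced by proteasome inhibitor MG132 added 30 min after compound; luciferase reporter driven by HSF1 response element in NIH3T3 cells; actives raise luminescence as potentiators of the MG132 stress response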
T4 sequence (P38532 whole entry): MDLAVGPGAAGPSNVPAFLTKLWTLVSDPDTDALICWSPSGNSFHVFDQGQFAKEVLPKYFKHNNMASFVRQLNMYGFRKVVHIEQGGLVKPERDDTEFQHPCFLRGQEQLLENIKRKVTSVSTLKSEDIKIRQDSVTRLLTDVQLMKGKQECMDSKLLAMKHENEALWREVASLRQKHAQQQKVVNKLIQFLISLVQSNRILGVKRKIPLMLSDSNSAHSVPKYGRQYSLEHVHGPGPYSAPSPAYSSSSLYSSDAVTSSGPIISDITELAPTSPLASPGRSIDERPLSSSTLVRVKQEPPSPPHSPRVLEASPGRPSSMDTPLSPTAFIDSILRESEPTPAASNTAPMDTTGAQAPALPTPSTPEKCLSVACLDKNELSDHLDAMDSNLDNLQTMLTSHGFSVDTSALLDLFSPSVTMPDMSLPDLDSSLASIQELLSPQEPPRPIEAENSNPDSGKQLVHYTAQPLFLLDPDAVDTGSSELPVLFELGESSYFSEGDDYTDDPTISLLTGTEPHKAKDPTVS

[17] = molecular target: T4, Heat shock factor protein 1; assay: decrease of HSF1-responsive luciferase luminescence – cell-based, NIH3T3, dose retest, confirmation (AID 2382); format: functional;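 also: NIH3T3 fibroblasts with HSF1-driven luciferase reporter stressed by proteasome inhibitor MG132; luminescence from HSF1-driven luciferase expression after 8 hours of MG132 stress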
[18] = NIH-3T3 fibroblast cytotoxicity, dose response, cytotoxicity control, cell-based, fluorescence, Alamar Blue, secondary assay (AID 2327); format: functional;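 also: NIH-3T3 mouse fibroblasts cultured with fluconazole at 8 µg/mL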
[19] = fluconazole-exposed Candida albicans growth modulators – fluorescence, retest, confirmation (AID 2467); format: functional, cell-based

Chain of Luciferin 4-monooxygenase (P08659 whole entry): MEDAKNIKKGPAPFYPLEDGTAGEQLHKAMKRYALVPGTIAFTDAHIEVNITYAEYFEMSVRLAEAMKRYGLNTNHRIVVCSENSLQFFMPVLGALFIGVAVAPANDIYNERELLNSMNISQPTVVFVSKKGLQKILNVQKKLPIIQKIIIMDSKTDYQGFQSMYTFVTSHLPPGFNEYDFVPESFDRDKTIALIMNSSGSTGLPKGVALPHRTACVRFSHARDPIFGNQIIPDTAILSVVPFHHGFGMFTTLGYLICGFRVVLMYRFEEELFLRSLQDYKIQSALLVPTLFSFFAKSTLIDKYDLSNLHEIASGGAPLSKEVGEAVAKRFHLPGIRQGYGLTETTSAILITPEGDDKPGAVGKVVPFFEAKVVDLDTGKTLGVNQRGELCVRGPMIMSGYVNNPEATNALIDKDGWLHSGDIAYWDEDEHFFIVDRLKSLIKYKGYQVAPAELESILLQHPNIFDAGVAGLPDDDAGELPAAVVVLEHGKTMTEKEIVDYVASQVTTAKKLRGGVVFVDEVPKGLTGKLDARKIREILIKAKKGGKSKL

O=c1cc(CN2CCN(c3ccccc3O)CC2)nc2sccn12
EC50 [1]: > 112 µM (not active)
EC50 [2]: 53.2 µM (active)

COc1ccc(C(CNC(=O)c2ccc(-c3nc4ccccc4s3)o2)N2CCCC2)cc1 (configuration not stated)
IC50 [3]: > 20 µM (inactive)

C[C@H](CO)N1C[C@H](C)[C@H](CN(C)C(=O)Nc2ccc(C(F)(F)F)cc2)Oc2c(NC(=O)c3nc4ccccc4s3)cccc2C1=O
AC50 [4]: 2.35 µM (active)

Cc1ccc(C(=O)N/C(=C\c2ccc(-c3ccccc3[N+](=O)[O-])o2)C(=O)NCCCN2CCOCC2)cc1
AC50 [5]: 6.33 µM (active)

O=C(Nc1ccc(F)cc1)C1CCCCC1
EC50 [1]: > 112 µM (not active)
EC50 [2]: > 112 µM (not active)

COc1cc(/C=N/NC(N)=O)ccc1OCC(=O)N1C(C)CCCC1C (configuration not stated)
EC50 [1]: > 112 µM (not active)
EC50 [2]: 5.74 µM (active)

CCOc1ccc(N2C(=O)/C(=C/c3ccccc3)N=C2SC)cc1
EC50 [6]: 0.135 µM (active)
EC50 [7]: 108 µM (active)

C[C@@H]1CN([C@@H](C)CO)C(=O)c2cccc(NC(=O)CCCCCC(=O)Nc3ccccc3N)c2O[C@@H]1CN(C)Cc1ccc(Cl)c(Cl)c1
AC50 [4]: 2.51 µM (active)

Cc1ccc(S(=O)(=O)NCC23C=CC(O2)C2C(=O)N(c4ccccc4)C(=O)C23)cc1 (configuration not stated)
AC50 [8]: 17.7 µM (active)

CC1=Nc2cc(C(=O)NCCCOC(C)C)ccc2Sc2ccc(C)cc21
EC50 [9]: 2.75 µM (active)
EC50 [10]: 3.85 µM (inconclusive)
EC50 [11]: 2.86 µM (active)
EC50 [12]: 2.72 µM (active)

CN(C)CCCNC(=O)C(=O)NCC1OCCN1S(=O)(=O)c1cccs1 (configuration not stated)
IC50 [3]: > 20 µM (inactive)

CCN(CC)S(=O)(=O)c1cc(OCC(N)=O)c(C)cc1Cl
EC50 [1]: > 112 µM (not active)
EC50 [2]: > 112 µM (not active)

C/N=C1\S/C(=C\c2ccc(O)c(OC)c2)C(=O)N1C
EC50 [13]: > 300 µM (not active)
EC50 [14]: > 300 µM (not active)
IC50 [15]: 11.1 µM (active)

CCOC(=O)c1ccc(N2C(=O)CC(N3CCC(Nc4ccc(F)cc4)CC3)C2=O)cc1 (configuration not stated)
EC50 [16]: > 260 µM (inactive)
AC50 [8]: 3.01 µM (active)

C(=N\Nc1nc2ccccc2[nH]1)/c1cccs1
IC50 [15]: 16.9 µM (active)

C[C@H](CO)N1C[C@H](C)[C@H](CN(C)Cc2ccc3c(c2)OCO3)Oc2c(NC(=O)Nc3ccc(C(F)(F)F)cc3)cccc2C1=O
AC50 [4]: 0.956 µM (active)

N#Cc1ccsc1NC(=O)C1CCN(C(=O)c2ccc(F)cc2)CC1
IC50 [3]: > 20 µM (inactive)

C[C@@H]1CN([C@H](C)CO)C(=O)c2cccc(NS(=O)(=O)c3ccc(Cl)cc3)c2O[C@@H]1CN(C)Cc1ccccc1
AC50 [4]: 20 µM (inactive)

CSc1ccc(/C=C2\C(=N)N3N=C(CC(=O)N4CCOCC4)SC3=NC2=O)cc1
EC50 [1]: > 112 µM (not active)
EC50 [2]: > 112 µM (not active)

C[C@H](CO)N1C[C@H](C)[C@@H](CN(C)Cc2ccc(C(=O)Nc3ccccc3N)cc2)Oc2c(NC(=O)c3cnccn3)cccc2C1=O
AC50 [4]: 2.45 µM (active)

COc1ccc(C(=O)N2CCCc3ccccc32)cc1
EC50 [1]: > 112 µM (not active)
EC50 [2]: > 112 µM (not active)

Cc1ccc(-c2nnc(Nc3ccc(O)cc3)c3ccccc23)cc1S(=O)(=O)NCCO
IC50 [15]: 13.2 µM (active)

CCNc1nc(NC#N)nc(SCC(=O)OCC)n1
EC50 [1]: > 112 µM (not active)
EC50 [2]: > 112 µM (not active)

CCc1ccc(-c2cc3c(=O)n(CC(=O)NCCCN4CCC(Cc5ccccc5)CC4)nc(C)n3n2)cc1
IC50 [3]: > 20 µM (inactive)

O=C(CSc1nc2ccccc2c(=O)n1-c1ccccc1)N1CCc2ccccc2C1
AC50 [5]: 3.61 µM (active)

COc1ccc(S(=O)(=O)Nc2ccc3c(c2)CC(=O)N([C@H](C)CO)C[C@@H](C)[C@H](CN(C)CC2CCCCC2)O3)cc1
AC50 [4]: 2.97 µM (active)

COc1ccc(N2CCN(CCCn3c(=S)[nH]c4ncccc4c3=O)CC2)cc1
EC50 [9]: > 150 µM (not active)
EC50 [17]: > 195 µM (not active)
EC50 [10]: 44.2 µM (active)
EC50 [11]: 58.9 µM (active)
EC50 [12]: > 150 µM (not active)

FC(F)(F)c1cc(CCN2CCNC[C@@H]2c2ccccc2)cc(C(F)(F)F)c1
IC50 [3]: > 20 µM (inactive)

Cc1ccc(S(=O)(=O)Nc2ccc3c(c2)C(=O)N([C@H](C)CO)C[C@H](C)[C@H](CN(C)Cc2ccc(C(F)(F)F)cc2)OCCCC[C@@H](C)O3)cc1
AC50 [4]: 3.01 µM (active)

Cc1ccc(/C=N/NC(=O)c2csc3c2CCCC3)cc1
EC50 [9]: 93.4 µM (active)
EC50 [10]: 54.1 µM (active)
EC50 [11]: 1.9 µM (active)
EC50 [12]: 2.46 µM (active)

Cc1noc(/C=C/c2ccccn2)c1[N+](=O)[O-]
EC50 [9]: 9.6 µM (active)
EC50 [10]: 24.5 µM (inconclusive)
EC50 [18]: 3.04 µM (inconclusive)
EC50 [19]: 2.97 µM (active)
EC50 [11]: 9.44 µM (active)
EC50 [12]: 8.5 µM (active)

Cc1ccc(C(=O)NCCCNCCCN(C)C)cn1
IC50 [3]: > 20 µM (inactive)

O=C(Nc1nccs1)C1CCN(S(=O)(=O)c2ccc(F)cc2)CC1
EC50 [1]: > 112 µM (not active)
EC50 [2]: 18.6 µM (active)

COCCNC(=S)N/N=C(\C)c1ccc(O)cc1
IC50 [15]: 10.8 µM (active)

CCn1c(CNc2ccc(Cl)cc2)nnc1SCc1ccccc1
AC50 [8]: 1.57 µM (active)

C[C@H](CO)N1C[C@H](C)[C@@H](CN(C)Cc2ccc(C(F)(F)F)cc2)Oc2c(NC(=O)Nc3ccc(F)cc3)cccc2C1=O
AC50 [4]: 5.99 µM (active)

CCOc1ncccc1C(=O)N1CCN(c2cccc(C)c2C)CC1
EC50 [9]: 0.349 µM (inconclusive)
EC50 [10]: 37.3 µM (inconclusive)
EC50 [11]: 0.458 µM (active)
EC50 [12]: 0.541 µM (active)
